Measurements as given in US10253002B2, “Compounds and methods of treating infections” (Neoculi Pty Ltd., priority 2013, dated 2019).
Values after ≈ are worked out from the molar mass of the structure shown. Values joined by “and” are separate entries in the source; they are usually repeats but may differ in a detail not shown here. Equal values may be shown once. Read-outs that look alike come from different tables or passages of the source.

Assays:
[1] = test system: DNA synthesis in S. aureus ATCC 29213; assay: Macromolecular synthesis assay: DNA synthesis ([3H] thymidine); type: cell-based, Staphylococcus aureus
Description: (§1) Cells were grown at 35° C. overnight on Trypticase Soy agar. A colony from the plate was used to inoculate 10 ml of Mueller Hinton broth II (MHBII), and the culture was grown to early exponential growth phase (OD600==0.2 to 0.3) while incubating in a shaker at 35° C. and 200 rpm.
When cells reached early exponential phase, 100 μL of culture was added to triplicate wells containing various concentrations of test compound or control antibiotics (5 μL) at 20× the final concentration in 100% DMSO. A 5% DMSO treated culture served as the “no drug” control for all experiments. Cells were added in MHBII at 105% to account for the volume of drug added to each reaction or in M9 minimal medium for protein synthesis reactions. Following 15 min incubation at room temperature, either [^3H] thymidine (DNA synthesis), [^3H] uridine (RNA synthesis) or [^3H] leucine (protein synthesis) was added at 0.5-1.0 μCi per reaction, depending on the experiment. Reactions were allowed to proceed at room temperature for 15-30 min and then stopped by adding 12 μL of cold 5% trichloroacetic acid (TCA) or 5% TCA/2% casamino acids (protein synthesis only). Reactions were incubated on ice for 30 min and the TCA precipitated material was collected on a 25 mm GF/A filter. After washing three times with 5 ml of cold 5% TCA, the filters were rinsed two times with 5 mL 100% ethanol, allowed to dry, and then counted using a Beckman LS3801 liquid scintillation counter.

[2] = test system: protein synthesis in S. aureus ATCC 29213; assay: Macromolecular synthesis assay: protein synthesis ([3H] leucine); type: cell-based, Staphylococcus aureus; details: at the MIC
Description: as §1
When cells reached early exponential phase, 100 μL of culture was added to triplicate wells containing various concentrations of test compound or control antibiotics (5 μL) at 20× the final concentration in 100% DMSO. A 5% DMSO treated culture served as the “no drug” control for all experiments. Cells were added in MHBII at 105% to account for the volume of drug added to each reaction or in M9 minimal medium for protein synthesis reactions. Following 15 min incubation at room temperature, either [^3H] thymidine (DNA synthesis), [^3H] uridine (RNA synthesis) or [^3H] leucine (protein synthesis) was added at 0.5-1.0 μCi per reaction, depending on the experiment. Reactions were allowed to proceed at room temperature for 15-30 min and then stopped by adding 12 μL of cold 5% trichloroacetic acid (TCA) or 5% TCA/2% casamino acids (protein synthesis only). […] After washing three times with 5 ml of cold 5% TCA, the filters were rinsed two times with 5 mL 100% ethanol, allowed to dry, and then counted using a Beckman LS3801 liquid scintillation counter.

[3] = test system: cell wall synthesis in S. aureus ATCC 29213; assay: Macromolecular synthesis assay: cell wall synthesis ([14C]N-acetylglucosamine); type: cell-based, Staphylococcus aureus
Description: as §1
Bacterial cells in early exponential growth phase were transferred to M9 minimal medium and added to 1.5 mL eppendorf tubes (100 μL/tube) containing various concentrations of test compound or control antibiotics (5 μL) at 20× the final concentration in 100% DMSO as described above. Following a 5 min incubation at 37° C., [^14C]N-acetylglucosamine (0.4 μCi/reaction) was added to each tube and incubated for 45 min in a 37° C. heating block. Reactions were stopped through the addition of 100 μL of 8% SDS to each tube. Reactions were then heated at 95° C. for 30 min in a heating block, cooled, briefly centrifuged, and spotted onto pre-wet HA filters ([…]). After washing three times with 5 mL of 0.1% SDS, the filters were rinsed two times with 5 ml of deionized water, allowed to dry, and then counted using a Beckman LS3801 liquid scintillation counter.

[4] = test system: ATP release from S. aureus ATCC 29213; assay: ATP release assay (CellTiter-Glo); type: cell-based, Staphylococcus aureus; details: at the MIC ([…] μg/ml); 30 min exposure
Description: The CellTiter-Glo Luminescent Cell Viability Assay (Promega) was utilized to measure the leakage of ATP from bacteria. […] The negative control received 2% DMSO, which represented the final DMSO concentration in each assay. After a 30 min exposure to drug, cells were sedimented by centrifugation and the supernatant was analyzed for the presence of ATP. Results were expressed as ATP concentration released to the medium (μM).

[5] = test system: S. aureus clinical isolates (MRSA and MSSA); assay: Minimum bactericidal concentration (MBC), Example 4; type: cell-based, Staphylococcus aureus; details: for MBC: Staphylococcus aureus
Text: The MBC was defined as the lowest drug concentration at which 99.95% of the original inoculum was eliminated.

VRE isolates = assay: MBC (CLSI methodology), Example 7; type: cell-based, Enterococcus spp.; parameters: key: M = many bacteria growing on the plate (too many to count)
MRSA = assay: Kill kinetics assay, Example 7; type: cell-based, Staphylococcus aureus
Description: (§2) MRSA/VRE were grown overnight on Columbia SBA at 37° C. A few colonies of bacteria were then suspended in CAMHB and adjusted to an optical density of 0.08 to 0.10. The bacterial suspension was diluted 1:10. […] The tubes were incubated at 37° C. In order to determine the number of viable bacteria present at various time points, a 100 μL aliquot was removed from each tube and diluted in normal saline. Then, 100 μL of each dilution was spread onto colony count agar, in duplicate, and incubated for 48 h at 37° C. After 24 h the numbers of colonies present on each plate were counted and therefore the number of viable bacteria present in the original suspension enumerated. Plates were re-checked after 48 hours.

VRE = assay: Kill kinetics assay, Example 7; type: cell-based, Enterococcus spp.
Description: as §2

[6] = control strain Enterococcus faecalis ATCC 29212; cited from earlier work

For `N=C(N/N=C/c1ccc(Cl)cc1)N/N=C/c1ccc(Cl)cc1` [NCL812, 1,3-bis[(E)-(4-chlorophenyl)methyleneamino]guanidine], the “inhibition of DNA synthesis” value ([1]; 0.5 fold the MIC) was 40%, the “inhibition of DNA synthesis” value ([1]; […] the MIC) was “no inhibition” and the “inhibition of DNA synthesis” value ([1]; at the MIC) was “approximately 95%”. The “inhibition of protein synthesis” value [2] was “up to 97%”, the “inhibition of cell wall synthesis” value ([3]; 4 fold the MIC) was “approximately 68%” and the “inhibition of cell wall synthesis” value ([3]; 8 fold the MIC) was about 52%. The “maximal ATP release” value [4] was 0.33 µM, the “S. aureus isolates with MBC equivalent to the MIC” value ([5]; 30 isolates) was 93.33% and the MBCrange ([5]; CA-MRSA (n = 10)) was 2 to 4 µg/mL. The MBCrange ([5]; HA-MRSA (n = 10)) was 4 to 8 µg/mL, the MBCrange ([5]; Methicillin-susceptible staphylococci (n = 10)) was 2 to 8 µg/mL and the MBC ([5]; CA-MRSA (n = 10), read-out: MBC50) was 4 µg/mL (≈ 12 µM). For the same compound, the MBC ([5]; CA-MRSA (n = 10), read-out: MBC90) was 4 µg/mL (≈ 12 µM), the MBC ([5]; HA-MRSA (n = 10), read-out: MBC50) was 8 µg/mL (≈ 23.9 µM) and the MBC ([5]; HA-MRSA (n = 10), read-out: MBC90) was 8 µg/mL (≈ 23.9 µM). For the same compound, the MBC ([5]; Methicillin-susceptible staphylococci (n = 10), read-out: MBC50) was 4 µg/mL (≈ 12 µM), the MBC ([5]; Methicillin-susceptible staphylococci (n = 10), read-out: MBC90) was 8 µg/mL (≈ 23.9 µM) and the MBC ([5]; Total bacterial isolates (n = 30), read-out: MBC50) was 4 µg/mL (≈ 12 µM). The MBC ([5]; Total bacterial isolates (n = 30), read-out: MBC90) was 8 µg/mL (≈ 23.9 µM), the MBCrange ([5]; Total bacterial isolates (n = 30)) was 2 to 8 µg/mL and the “NCL812 MBC: number of bacteria growing after 24 hours per ml of sample” value (shortened to “NCL812 MBC: number … per ml of sample”) (VRE isolates; VRE 12c, NCL812 2 μg/ml) was 0 CFU/ml. The “NCL812 MBC: number … per ml of sample” value (VRE isolates; VRE 12c, NCL812 16 μg/ml) was “M”, the “NCL812 MBC: number … per ml of sample” value (VRE isolates; VRE 12c, NCL812 32 μg/ml) was “M” and the “NCL812 MBC: number … per ml of sample” value (VRE isolates; VRE 12c, NCL812 64 μg/ml) was “M”. The “NCL812 MBC: number … per ml of sample” value (VRE isolates; VRE 12c, NCL812 […]) was “M”, the “NCL812 MBC: number … per ml of sample” value (VRE isolates; VRE 14t, NCL812 4 μg/ml) was 0 CFU/ml and the “NCL812 MBC: number … per ml of sample” value (VRE isolates; VRE 14t, NCL812 […]) was “M”. For the same compound, the “NCL812 MBC: number … per ml of sample” value (VRE isolates; VRE 16c(dc), NCL812 16 μg/ml) was “M”, the “NCL812 MBC: number … per ml of sample” value (VRE isolates; VRE 16c(dc), NCL812 32 μg/ml) was “M” and the “NCL812 MBC: number … per ml of sample” value (VRE isolates; VRE 16c(dc), NCL812 64 μg/ml) was “M”. The “NCL812 MBC: number … per ml of sample” value (VRE isolates; VRE 16c(dc), NCL812 […]) was “M”, the “NCL812 MBC: number … per ml of sample” value (VRE isolates; VRE 16c, NCL812 4 μg/ml) was 820 CFU/ml and 790 CFU/ml and the “NCL812 MBC: number … per ml of sample” value (VRE isolates; VRE 16c, NCL812 8 μg/ml) was 980 CFU/ml and 890 CFU/ml. For the same compound, the “NCL812 MBC: number … per ml of sample” value (VRE isolates; VRE 16c, NCL812 16 μg/ml) was “M”, the “NCL812 MBC: number … per ml of sample” value (VRE isolates; VRE 16c, NCL812 32 μg/ml) was “M” and the “NCL812 MBC: number … per ml of sample” value (VRE isolates; VRE 16c, NCL812 64 μg/ml) was “M”. For the same compound, the “NCL812 MBC: number … per ml of sample” value (VRE isolates; VRE 16c, NCL812 […]) was “M”, the “NCL812 MBC: number … per ml of sample” value (VRE isolates; VRE 19t, NCL812 4 μg/ml) was 0 CFU/ml and the “NCL812 MBC: number … per ml of sample” value (VRE isolates; VRE 19t, NCL812 8 μg/ml) was 0 CFU/ml. The “NCL812 MBC: number … per ml of sample” value (VRE isolates; VRE 19t, NCL812 […]) was “M”, the “NCL812 MBC: number … per ml of sample” value (VRE isolates; VRE 23c, NCL812 2 μg/ml) was 0 CFU/ml and the “NCL812 MBC: number … per ml of sample” value (VRE isolates; VRE 23c, NCL812 64 μg/ml) was “M”. For the same compound, the “NCL812 MBC: number … per ml of sample” value (VRE isolates; VRE 23c, NCL812 […]) was “M”, the “NCL812 MBC: number … per ml of sample” value (VRE isolates; VRE 25c, NCL812 8 μg/ml) was “M” and the “NCL812 MBC: number … per ml of sample” value (VRE isolates; VRE 25c, NCL812 16 μg/ml) was “M”. The “NCL812 MBC: number … per ml of sample” value (VRE isolates; VRE 25c, NCL812 32 μg/ml) was “M”, the “NCL812 MBC: number … per ml of sample” value (VRE isolates; VRE 25c, NCL812 64 μg/ml) was “M” and the “NCL812 MBC: number … per ml of sample” value (VRE isolates; VRE 25c, NCL812 […]) was “M”. For the same compound, the “NCL812 MBC: number … per ml of sample” value (VRE isolates; VRE 26c(dc), NCL812 8 μg/ml) was 4000 CFU/ml and 3500 CFU/ml, the “NCL812 MBC: number … per ml of sample” value (VRE isolates; VRE 26c(dc), NCL812 16 μg/ml) was “M” and the “NCL812 MBC: number … per ml of sample” value (VRE isolates; VRE 26c(dc), NCL812 32 μg/ml) was “M”. For the same compound, the “NCL812 MBC: number … per ml of sample” value (VRE isolates; VRE 26c(dc), NCL812 64 μg/ml) was “M”, the “NCL812 MBC: number … per ml of sample” value (VRE isolates; VRE 26c(dc), NCL812 […]) was “M” and the “NCL812 MBC: number … per ml of sample” value (VRE isolates; VRE 35t, NCL812 2 μg/ml) was 0 CFU/ml. For the same compound, the “NCL812 MBC: number … per ml of sample” value (VRE isolates; VRE 35t, NCL812 4 μg/ml) was 0 CFU/ml, the “NCL812 MBC: number … per ml of sample” value (VRE isolates; VRE 35t, NCL812 8 μg/ml) was 0 CFU/ml and the “NCL812 MBC: number … per ml of sample” value (VRE isolates; VRE 37c, NCL812 4 μg/ml) was 100 CFU/ml and 50 CFU/ml. For the same compound, the “NCL812 MBC: number … per ml of sample” value (VRE isolates; VRE 37c, NCL812 64 μg/ml) was “M”, the “NCL812 MBC: number … per ml of sample” value (VRE isolates; VRE 37c, NCL812 […]) was “M” and the “numbers of bacteria versus control” value (MRSA; after 24 h, all NCL812 concentrations) was “not significantly different to the control”. For the same compound, the “reduction in comparison to the growth control” value (MRSA; at 4 h) was “at least 2.5 log10 CFU/mL”, the “difference between the control and bacteria exposed to NCL812” value (MRSA; at 8 h) was at least 3.5 log10 CFU/mL and the “reduction in the viable count compared to the control” value (VRE; at 4 h) was about 2 log10. For the same compound, the “reduction in the viable count compared to the control” value (VRE; at 8 h) was about 2.5 log10 and the “growth of bacteria versus control” value (VRE; at 24 h) was “no longer as significantly reduced in comparison to the control”.
In the case of `CC1(C)S[C@@H]2[C@H](NC(=O)[C@H](N)c3ccccc3)C(=O)N2[C@H]1C(=O)O` [Ampicillin], the “Acceptable MIC range for Ampicillin” value [6] is given as 0.5 to 2 µg/mL.
